# Test results from PMC3961306, “Comparison of the Cancer Gene Targeting and Biochemical Selectivities of All Targeted Kinase Inhibitors Approved for Clinical Use” (PLoS ONE, 2014).
# Assays:
# Assay in all cases: Kinase profiling in a biochemical assay panel (mobility shift assays and ELISA), %-inhibition at 1 μM; selectivity entropy
# [1] = target: panel of more than 300 wild-type and mutant kinases (313 kinase panel) (Homo sapiens, UniProt P17252); settings: kinase PKCα; 1 μM
# [2] = target: panel of more than 300 wild-type and mutant kinases (313 kinase panel) (Homo sapiens, UniProt P12931); settings: kinase SRC; 1 μM
# [3] = target: panel of more than 300 wild-type and mutant kinases (313 kinase panel) (Homo sapiens, UniProt Q13153); settings: kinase PAK1; 1 μM
# [4] = target: panel of more than 300 wild-type and mutant kinases (313 kinase panel) (Homo sapiens, UniProt Q06187); settings: kinase BTK; 1 μM compound
# [5] = target: panel of more than 300 wild-type and mutant kinases (313 kinase panel) (Homo sapiens, UniProt Q9NQU5); settings: kinase PAK6; 1 μM
# [6] = target: panel of more than 300 wild-type and mutant kinases (313 kinase panel) (Homo sapiens, UniProt P29317); settings: kinase EPHA2; compound at 1 μM
# [7] = target: panel of more than 300 wild-type and mutant kinases (313 kinase panel) (Homo sapiens, UniProt P07947); settings: kinase YES; compound at 1 μM
# Chain of panel of more than 300 wild-type and mutant kinases (313 kinase panel) (Homo sapiens, UniProt P07947) (P07947 whole entry, stated change not applied): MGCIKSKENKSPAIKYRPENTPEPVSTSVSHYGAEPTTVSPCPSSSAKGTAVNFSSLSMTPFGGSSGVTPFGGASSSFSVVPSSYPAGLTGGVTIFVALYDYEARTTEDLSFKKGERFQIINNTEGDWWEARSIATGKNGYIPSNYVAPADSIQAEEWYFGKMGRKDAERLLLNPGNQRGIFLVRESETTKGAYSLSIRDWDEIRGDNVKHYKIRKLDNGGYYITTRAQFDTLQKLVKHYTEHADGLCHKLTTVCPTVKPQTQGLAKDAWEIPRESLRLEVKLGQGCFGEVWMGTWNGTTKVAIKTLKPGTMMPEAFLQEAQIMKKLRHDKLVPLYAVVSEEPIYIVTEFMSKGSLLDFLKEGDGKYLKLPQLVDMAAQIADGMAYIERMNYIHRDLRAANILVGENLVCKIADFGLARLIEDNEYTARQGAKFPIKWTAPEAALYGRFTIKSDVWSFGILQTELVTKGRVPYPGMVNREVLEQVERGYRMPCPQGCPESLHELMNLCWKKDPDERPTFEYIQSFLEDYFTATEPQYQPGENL
# [8] = target: panel of more than 300 wild-type and mutant kinases (313 kinase panel) (Homo sapiens, UniProt P48730); settings: kinase CK1δ; 1 μM compound
# [9] = target: T1, panel of more than 300 wild-type and mutant kinases (313 kinase panel) (Homo sapiens, UniProt Q96L34); settings: kinase MARK4; compound at 1 μM
# T1 sequence (Q96L34 1-752): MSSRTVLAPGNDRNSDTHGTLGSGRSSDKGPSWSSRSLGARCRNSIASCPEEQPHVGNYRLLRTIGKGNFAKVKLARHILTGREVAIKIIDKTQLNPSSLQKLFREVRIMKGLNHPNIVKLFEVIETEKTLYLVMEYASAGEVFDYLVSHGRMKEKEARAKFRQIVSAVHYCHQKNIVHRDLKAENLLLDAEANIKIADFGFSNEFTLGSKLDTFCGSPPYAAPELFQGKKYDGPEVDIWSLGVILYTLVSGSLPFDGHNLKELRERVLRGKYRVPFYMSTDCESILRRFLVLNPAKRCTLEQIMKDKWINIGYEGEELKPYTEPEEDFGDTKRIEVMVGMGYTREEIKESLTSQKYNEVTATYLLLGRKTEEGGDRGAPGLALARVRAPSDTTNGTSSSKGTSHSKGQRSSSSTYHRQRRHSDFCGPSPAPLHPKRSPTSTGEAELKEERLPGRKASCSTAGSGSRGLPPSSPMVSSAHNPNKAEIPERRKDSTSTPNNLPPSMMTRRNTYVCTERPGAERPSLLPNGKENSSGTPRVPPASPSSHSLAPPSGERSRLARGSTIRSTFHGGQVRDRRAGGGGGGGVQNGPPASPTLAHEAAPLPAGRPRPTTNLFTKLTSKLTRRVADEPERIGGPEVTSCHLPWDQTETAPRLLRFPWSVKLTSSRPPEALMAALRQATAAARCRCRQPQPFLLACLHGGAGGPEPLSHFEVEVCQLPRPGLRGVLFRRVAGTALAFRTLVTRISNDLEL
# [10] = target: panel of more than 300 wild-type and mutant kinases (313 kinase panel) (Homo sapiens, UniProt P42684); settings: kinase ARG; 1 μM compound
# [11] = target: panel of more than 300 wild-type and mutant kinases (313 kinase panel) (Homo sapiens, UniProt P48729); settings: kinase CK1α; 1 μM compound
# [12] = target: panel of more than 300 wild-type and mutant kinases (313 kinase panel) (Homo sapiens, UniProt Q13233); settings: kinase MAP3K1; compound at 1 μM
# Chain of panel of more than 300 wild-type and mutant kinases (313 kinase panel) (Homo sapiens, UniProt Q13233) (Q13233 whole entry, change not shown): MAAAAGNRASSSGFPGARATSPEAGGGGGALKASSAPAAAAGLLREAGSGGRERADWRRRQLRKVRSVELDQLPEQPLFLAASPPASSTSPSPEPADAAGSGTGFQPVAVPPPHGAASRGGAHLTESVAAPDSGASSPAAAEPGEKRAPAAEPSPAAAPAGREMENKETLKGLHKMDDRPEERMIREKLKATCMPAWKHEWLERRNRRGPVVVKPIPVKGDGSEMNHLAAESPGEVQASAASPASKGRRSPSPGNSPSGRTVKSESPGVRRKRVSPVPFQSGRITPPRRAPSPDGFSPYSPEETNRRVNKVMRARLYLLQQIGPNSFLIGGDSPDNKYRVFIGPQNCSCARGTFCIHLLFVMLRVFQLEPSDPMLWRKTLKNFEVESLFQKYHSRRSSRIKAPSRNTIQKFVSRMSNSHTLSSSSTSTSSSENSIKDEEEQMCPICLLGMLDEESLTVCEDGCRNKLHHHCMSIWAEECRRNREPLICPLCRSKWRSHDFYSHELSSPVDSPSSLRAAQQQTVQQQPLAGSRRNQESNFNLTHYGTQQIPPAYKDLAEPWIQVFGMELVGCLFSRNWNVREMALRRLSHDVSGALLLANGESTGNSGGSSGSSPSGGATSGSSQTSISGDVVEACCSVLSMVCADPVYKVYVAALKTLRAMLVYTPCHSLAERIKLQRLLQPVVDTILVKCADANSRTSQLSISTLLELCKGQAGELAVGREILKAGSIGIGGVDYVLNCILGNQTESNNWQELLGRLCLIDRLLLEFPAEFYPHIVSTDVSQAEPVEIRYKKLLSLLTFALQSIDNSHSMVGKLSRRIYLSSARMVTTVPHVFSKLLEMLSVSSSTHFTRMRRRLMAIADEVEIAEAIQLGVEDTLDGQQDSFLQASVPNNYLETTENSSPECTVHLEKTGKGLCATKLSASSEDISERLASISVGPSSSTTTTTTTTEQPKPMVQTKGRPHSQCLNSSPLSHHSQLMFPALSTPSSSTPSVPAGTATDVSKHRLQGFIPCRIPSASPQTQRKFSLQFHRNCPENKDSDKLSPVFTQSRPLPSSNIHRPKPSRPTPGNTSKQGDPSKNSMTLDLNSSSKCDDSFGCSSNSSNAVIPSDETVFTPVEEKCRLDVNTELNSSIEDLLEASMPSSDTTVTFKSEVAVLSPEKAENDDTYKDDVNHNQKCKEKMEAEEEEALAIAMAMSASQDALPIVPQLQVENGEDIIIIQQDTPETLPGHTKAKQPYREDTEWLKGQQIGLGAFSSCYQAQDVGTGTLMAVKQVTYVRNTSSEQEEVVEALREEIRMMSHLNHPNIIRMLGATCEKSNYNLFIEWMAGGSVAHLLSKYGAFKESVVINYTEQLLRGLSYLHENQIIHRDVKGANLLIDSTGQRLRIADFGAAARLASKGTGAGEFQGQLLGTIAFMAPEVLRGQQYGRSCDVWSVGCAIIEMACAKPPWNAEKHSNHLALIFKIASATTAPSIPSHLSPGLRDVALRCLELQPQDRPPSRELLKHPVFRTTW
# [13] = target: panel of more than 300 wild-type and mutant kinases (313 kinase panel) (Homo sapiens, UniProt Q9HBH9); settings: kinase MNK2; 1 μM
# [14] = target: panel of more than 300 wild-type and mutant kinases (313 kinase panel) (Homo sapiens, UniProt Q15349); settings: kinase RSK3; 1 μM
compound,measurement,setting,value
CCCS(=O)(=O)Nc1ccc(F)c(C(=O)c2c[nH]c3ncc(-c4ccc(Cl)cc4)cc23)c1F [vemurafenib],%-inhibition of PKCα,[1],-3.61%
same,%-inhibition of SRC,[2],52%
same,%-inhibition of PAK1,[3],-5%
same,"%-inhibition, BTK",[4],2%
same,%-inhibition of PAK6,[5],-7%
same,%-inhibition of EPHA2,[6],0.715%
same,%-inhibition of YES,[7],74%
same,"%-inhibition, CK1δ",[8],-3%
same,%-inhibition of MARK4,[9],3.78%
same,"%-inhibition, ARG",[10],7%
same,"%-inhibition, CK1α",[11],-4.34%
same,%-inhibition of MAP3K1,[12],13%
same,%-inhibition of MNK2,[13],27%
same,%-inhibition of RSK3,[14],-0.497%
